Results on nine compounds are retold here after ChEMBL document CHEMBL1137861, “Novel pyrazinone inhibitors of mast cell tryptase: synthesis and SAR evaluation” (Bioorg Med Chem Lett, 2004).

T1 sequence (Q15661 31-275 limits assumed): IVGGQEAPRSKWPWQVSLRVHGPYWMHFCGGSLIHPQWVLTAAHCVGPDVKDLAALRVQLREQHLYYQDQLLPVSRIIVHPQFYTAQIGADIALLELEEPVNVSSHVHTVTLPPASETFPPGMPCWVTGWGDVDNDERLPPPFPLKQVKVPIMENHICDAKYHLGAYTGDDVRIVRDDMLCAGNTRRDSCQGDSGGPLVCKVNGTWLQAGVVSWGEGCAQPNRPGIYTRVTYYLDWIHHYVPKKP

One assay addresses T1, Tryptase beta-1 (Homo sapiens, UniProt Q15661). The experiment in a line: Inhibitory activity against human Tryptase beta 2 expressed in yeast cells at 5 uM. The format is cell-based.
On to `Cc1c(Cl)nc(N[C@H]2CC[C@H](N)CC2)c(=O)n1CC(=O)NCCc1c[nH]cn1`, for which the inhibition was 8%. In the case of `Cc1c(Cl)nc(N[C@H]2CC[C@H](N)CC2)c(=O)n1CC(=O)Nc1cccc(N)c1`, the inhibition came out at 7%. As for `Cc1c(Cl)nc(N[C@H]2CC[C@H](N)CC2)c(=O)n1CC(=O)Nc1cccc(C(N)=O)c1`, the inhibition amounted to 18%. The compound `Cc1c(Cl)nc(N[C@H]2CC[C@H](N)CC2)c(=O)n1CC(=O)Nc1ccc(N)cc1` gave an inhibition of 29%. The compound `Cc1c(Cl)nc(N[C@H]2CC[C@H](N)CC2)c(=O)n1CC(=O)NC1CCC(N)CC1` (some centres undefined) came in with an inhibition of 2%. Take `Cc1c(Cl)nc(N[C@H]2CC[C@H](N)CC2)c(=O)n1CC(=O)Nc1ccc(C(N)=O)cc1`: the inhibition stood at 31%. As for `Cc1c(Cl)nc(N[C@H]2CC[C@H](N)CC2)c(=O)n1CC(=O)Nc1ccc(CN)cc1`, the inhibition came out at 16%.

For another assay, the target named is T1, Tryptase beta-1. Kind of assay: Inhibitory activity against human Tryptase beta 2 expressed in yeast cells at 5 uM; not active. The format is cell-based.
For `Cc1c(Cl)nc(Nc2cccc(Cl)c2)c(=O)n1CC(=O)Nc1cccc(CN)c1`, the inhibition came to 11%. Take `Cc1c(Cl)nc(Nc2ccc(F)cc2)c(=O)n1CC(=O)Nc1cccc(CN)c1`: the inhibition is 24%.
